Here are results for 1 compound from patent US6479670B1, “Selective retinoid acid receptor agonists” (Hoffmann-La Roche Inc., priority 1999, dated 2002).

Structures are written as SMILES.

The test concerns rat model of elastase-induced emphysema. The experiment in a line: Repair of alveoli in elastase-induced emphysema (rat model), morphometric analysis. It counts as in vivo, male Sprague Dawley rats. The note with it: elastase-induced emphysema in rats. The method, then: RAR selective agonists were evaluated for its effects on alveolar repair in the rat model of elastase-induced emphysema in rats (Massaro et al. Nature (Medicine, 1997, 3, 675)). Animals were divided into treatment groups of approximately eight. Lung inflammation and alveolar damage was induced in male Sprague Dawley rats by a single instillation of pancreatic elastase(porcine derived, Calbiochem) 2 U/gram body mass. Three weeks post injury all-trans retinoic acid or RAR agonist was dissolved in dimethylsulfoxide (20 mg/ml) and stored at −20 C. Fresh working stocks were prepared fresh daily by dilution in PBS to a final concentration of 2 mg/ml. Animals treated with all-trans retinoic acid (0.5 mg/Kg ip) were dosed once daily by intraperitoneal injection, starting 21 days post injury. Control groups were challenged with elastase and 21 days later treated with Vehicle (DMSO/PBS) for 14 days. Animals were sacrificed 24 hours after the last dose of by exsanguination under deep anesthesia.
The lungs were inflated with 10% neutral buffered formalin by intratracheal instillation at a constant rate (1 ml/gram body mass/min). The lung was excised and immersed in fixative for 24 hours prior to processing. Standard methods were used to prepare 5 um paraffin sections. Sections were stained with Hematoxylin and Eosin (H%E). Computerized Morphometric analysis was performed to determine the average alveolar size and alveolar number (Table 1).

Regarding `COCC1(C)CCCOc2cc(C#Cc3ccc(C(=O)O)cc3)ccc21` (racemic) [A, 4-(5-methoxymethyl-5-methyl-2,3,4,5-tetrahydro-1-benzo[b]oxepin-8-yl-ethynyl)-benzoic acid], the “% repair area” value is 45.2% (0.1 mg/kg p.o.), 51.3% (0.3 mg/kg p.o.) and 58% (0.5 mg/kg i.p.).
